Results published in article PMC12396409, “Screening and hit evaluation of a microbial metabolite library against the pathogenic Plasmodium falciparum and Toxoplasma gondii parasites” (International Journal for Parasitology: Drugs and Drug …, 2025).
Where two headings read alike, the source gives them in different places.

Assays:
[1] = test system: P. falciparum 3D7 parasites; experiment: P. falciparum growth inhibition assay, 1-cycle (72 h treatment), SYBR DNA staining (library screen at 2 μg/mL and dose-response); type: cell-based, Plasmodium falciparum; conditions: for activity at 2 µg/mL: Plasmodium falciparum
[2] = test system: P. falciparum 3D7 parasites; experiment: P. falciparum growth inhibition assay, 2-cycle (120 h treatment), delayed-death screen and dose-response; type: cell-based, Plasmodium falciparum; conditions: for activity at 2 µg/mL: Plasmodium falciparum
[3] = test system: T. gondii RH strain (RH-Tub-eYFP) tachyzoites; experiment: microbe, parasite or virus in culture; type: cell-based, Toxoplasma gondii; conditions: 72 h; for percent parasite growth at 2 µg/mL: Toxoplasma gondii
[4] = P. falciparum, 72 h, screen at 2 μg/mL, replicate 1
[5] = P. falciparum, 72 h, screen at 2 μg/mL, replicate 2
[6] = P. falciparum, 120 h, screen at 2 μg/mL, replicate 1
[7] = P. falciparum, 120 h, screen at 2 μg/mL, replicate 2
[8] = T. gondii, screen at 2 μg/mL, replicate 1
[9] = T. gondii, screen at 2 μg/mL, replicate 2
[10] = T. gondii, parasite screen 2 μg/mL, % growth, replicate 1, read-out: Tg_72h_%Growth_Rep1
[11] = T. gondii, parasite screen 2 μg/mL, % growth, replicate 2, read-out: Tg_72h_%Growth_Rep2
[12] = library screen at 2 μg/mL, 72 h, % growth, replicate 1
[13] = library screen at 2 μg/mL, 72 h, % growth, replicate 2
[14] = library screen at 2 μg/mL, 120 h, % growth, replicate 1
[15] = library screen at 2 μg/mL, 120 h, % growth, replicate 2
[16] = library screen at 2 μg/mL, % growth, replicate 1
[17] = library screen at 2 μg/mL, % growth, replicate 2

C/C=C/C[C@@H](C)[C@@H](O)[C@H]1C(=O)N[C@@H]([C@@H](C)O)C(=O)N(C)CC(=O)N(C)[C@@H](CC(C)C)C(=O)N[C@@H](C(C)C)C(=O)N(C)[C@@H](CC(C)C)C(=O)N[C@@H](C)C(=O)N[C@H](C)C(=O)N(C)[C@@H](CC(C)C)C(=O)N(C)[C@@H](CC(C)C)C(=O)N(C)[C@@H](C(C)C)C(=O)N1C [Cyclosporin C]
Pf_72h_%Growth_Rep1 [1, 4]: 11.25%
Pf_72h_%Growth_Rep2 [1, 5]: 0.59%
Pf_120h_%Growth_Rep1 [2, 6]: 31.80%
Pf_120h_%Growth_Rep2 [2, 7]: 7.29%
Tg_72h_%Growth_Rep1 [3, 8]: 44.04%
Tg_72h_%Growth_Rep2 [3, 9]: 47.65%

C=Cc1cc(OC)c2c(c1)c(=O)oc1c2cc(OC)c2c(O)ccc([C@H]3O[C@H](C)[C@@H](O)[C@@H](N(C)C)[C@@H]3O)c21 [Deacetylravidomycin]
Pf_72h_%Growth_Rep1 [1, 4]: 3.21%
Pf_72h_%Growth_Rep2 [1, 5]: 5.95%
Pf_120h_%Growth_Rep1 [2, 6]: 1.87%
Pf_120h_%Growth_Rep2 [2, 7]: 7.89%
Tg_72h_%Growth_Rep1 [3, 8]: 3.62%
Tg_72h_%Growth_Rep2 [3, 9]: 4.01%

COc1cc(C(=O)O)c2c(c1C)OC(=O)c1c(C)cc(O)c(C=O)c1O2 [Psoromic acid]
activity at 2 µg/mL ([1]; 3D7, P. falciparum, 72 h, parasite screen 2 μg/mL, % growth, replicate 1, read-out: Pf_72h_%Growth_Rep1): 92.3%
activity at 2 µg/mL ([1]; 3D7, P. falciparum, 72 h, parasite screen 2 μg/mL, % growth, replicate 2, read-out: Pf_72h_%Growth_Rep2): 123%
activity at 2 µg/mL ([2]; 3D7, P. falciparum, 120 h, parasite screen 2 μg/mL, % growth, replicate 1, read-out: Pf_120h_%Growth_Rep1): 90.8%
activity at 2 µg/mL ([2]; 3D7, P. falciparum, 120 h, parasite screen 2 μg/mL, % growth, replicate 2, read-out: Pf_120h_%Growth_Rep2): 141%
percent parasite growth at 2 µg/mL [3, 10]: 127%
percent parasite growth at 2 µg/mL [3, 11]: 82.8%

COc1ccc(Br)c(C)c1C(=O)O[C@@H]1C[C@H](O[C@@H]2C(C)O[C@@H](O[C@H]3CCC[C@@H]4[C@@H]3C=C[C@H]3CCCC/C=C/[C@@H]5C=C(C(=O)O)[C@H](C)C[C@]56OC(=O)C(=C6O)OC(=O)[C@@]43C)C[C@H]2O)O[C@H](C)[C@H]1O (some centres unmarked) [Bromothricin]
Pf_72h_%Growth_Rep1 [1, 4]: 90.13%
Pf_72h_%Growth_Rep2 [1, 5]: 84.25%
Pf_120h_%Growth_Rep1 [2, 6]: 159.83%
Pf_120h_%Growth_Rep2 [2, 7]: 97.51%
Tg_72h_%Growth_Rep1 [3, 8]: 83.92%
Tg_72h_%Growth_Rep2 [3, 9]: 93.14%

CC1(C)CCC[C@]2(C)[C@@H](CO)C(CO)=CC[C@@H]12 [Drimendiol]
Pf_72h_%Growth_Rep1 [1, 12]: 88.42%
Pf_72h_%Growth_Rep2 [1, 13]: 85.66%
Pf_120h_%Growth_Rep1 [2, 14]: 96.59%
Pf_120h_%Growth_Rep2 [2, 15]: 92.13%
Tg_72h_%Growth_Rep1 [3, 16]: 182.34%
Tg_72h_%Growth_Rep2 [3, 17]: 100.93%

CN[C@@H]1C[C@H]2O[C@@](C)([C@@H]1OC)n1c3ccccc3c3c4c(c5c6ccccc6n2c5c31)C(=O)NC4 [staurosporine, reference compound]
activity in the screen against P. falciparum ([1]; 2 μg/mL, 72 h, active = ≥80 % growth inhibition): active in our screens
activity at 2 µg/mL ([1]; 3D7, 72 h, P. falciparum, 72 h, parasite screen 2 μg/mL, % growth, replicate 1, read-out: Pf_72h_%Growth_Rep1): 9.8%
activity at 2 µg/mL ([1]; 3D7, 72 h, P. falciparum, 72 h, parasite screen 2 μg/mL, % growth, replicate 2, read-out: Pf_72h_%Growth_Rep2): -0.94%
activity at 2 µg/mL ([2]; 3D7, 120 h, P. falciparum, 120 h, parasite screen 2 μg/mL, % growth, replicate 1, read-out: Pf_120h_%Growth_Rep1): 10.8%
activity at 2 µg/mL ([2]; 3D7, 120 h, P. falciparum, 120 h, parasite screen 2 μg/mL, % growth, replicate 2, read-out: Pf_120h_%Growth_Rep2): 1.05%
activity in the screen against T. gondii ([3]; 2 μg/mL, active = ≥80 % growth inhibition): active in our screens
percent parasite growth at 2 µg/mL [3, 10]: 1.08%
percent parasite growth at 2 µg/mL [3, 11]: -0.18%

COC12c3c(C)cc(O)c4c(=O)occ(c34)C(=O)C1C13COC(=O)c4c(O)cc(C)c(c41)C(=O)C2C3OC(C)=O (centres unmarked) [Duclauxin]
Pf_72h_%Growth_Rep1 [1, 12]: 87.43%
Pf_72h_%Growth_Rep2 [1, 13]: 79.39%
Pf_120h_%Growth_Rep1 [2, 14]: 87.90%
Pf_120h_%Growth_Rep2 [2, 15]: 120.62%
Tg_72h_%Growth_Rep1 [3, 16]: 149.61%
Tg_72h_%Growth_Rep2 [3, 17]: 92.65%

C=C/C(C)=C/[C@H](C)C(=O)C[C@H](O)CC1CC(=O)NC(=O)C1 [Streptimidone]
Pf_72h_%Growth_Rep1 ([1]; P. falciparum, 72 h, parasite screen 2 μg/mL, % growth, replicate 1): 21.69%
Pf_72h_%Growth_Rep2 ([1]; P. falciparum, 72 h, parasite screen 2 μg/mL, % growth, replicate 2): 38.20%
Pf_120h_%Growth_Rep1 ([2]; P. falciparum, 120 h, parasite screen 2 μg/mL, % growth, replicate 1): 72.22%
Pf_120h_%Growth_Rep2 ([2]; P. falciparum, 120 h, parasite screen 2 μg/mL, % growth, replicate 2): 22.01%
Tg_72h_%Growth_Rep1 ([3]; T. gondii, parasite screen 2 μg/mL, % growth, replicate 1): 3.03%
Tg_72h_%Growth_Rep2 ([3]; T. gondii, parasite screen 2 μg/mL, % growth, replicate 2): 2.79%

CCC(C)C1OC2(CCC1C)CC1CC(CC=C(C)C(OC3CC(OC)C(OC4CC(OC)C(O)C(C)O4)C(C)O3)C(C)C=CC=C3COC4C(O)C(C)C=C(C(=O)O1)C34O)O2 (centres unmarked) [BIA-I1581]
Pf_72h_%Growth_Rep1 ([1]; P. falciparum 3D7, 72 h, library screen at 2 μg/mL, % growth, replicate 1): 5.59%
Pf_72h_%Growth_Rep2 ([1]; P. falciparum 3D7, 72 h, library screen at 2 μg/mL, % growth, replicate 2): 2.07%
Pf_120h_%Growth_Rep1 ([2]; P. falciparum 3D7, 120 h, library screen at 2 μg/mL, % growth, replicate 1): 16.87%
Pf_120h_%Growth_Rep2 ([2]; P. falciparum 3D7, 120 h, library screen at 2 μg/mL, % growth, replicate 2): 11.19%
Tg_72h_%Growth_Rep1 ([3]; T. gondii RH, library screen at 2 μg/mL, % growth, replicate 1): 33.19%
Tg_72h_%Growth_Rep2 ([3]; T. gondii RH, library screen at 2 μg/mL, % growth, replicate 2): 43.03%

C[C@@H]1Cc2c(Cl)cc(C(=O)N[C@@H](Cc3ccccc3)C(=O)O)c(O)c2C(=O)O1 [BIA-O1195]
Pf_72h_%Growth_Rep1 ([1]; P. falciparum 3D7, 72 h, parasite screen at 2 μg/mL, % growth, replicate 1): 84.32%
Pf_72h_%Growth_Rep2 ([1]; P. falciparum 3D7, 72 h, parasite screen at 2 μg/mL, % growth, replicate 2): 95.25%
Pf_120h_%Growth_Rep1 ([2]; P. falciparum 3D7, 120 h, parasite screen at 2 μg/mL, % growth, replicate 1): 103.82%
Pf_120h_%Growth_Rep2 ([2]; P. falciparum 3D7, 120 h, parasite screen at 2 μg/mL, % growth, replicate 2): 136.40%
Tg_72h_%Growth_Rep1 ([3]; T. gondii, parasite screen at 2 μg/mL, % growth, replicate 1): 120.41%
Tg_72h_%Growth_Rep2 ([3]; T. gondii, parasite screen at 2 μg/mL, % growth, replicate 2): 95.09%
